In patent EP2002836B1, “Cyclocondensed azaindoles active as kinase inhibitors” (Nerviano Medical Sciences S.r.l., priority 2007, dated 2008):

Experiments:
PKAα = target: T1, PKAα (Homo sapiens, UniProt P17612); assay: FABS-NMR screening (3-FABS, 19F-labelled AKTide-like substrate) on PKA; format: biochemical; details: 25 nM protein, 30 µM substrate, 150 µM ATP
T1 construct: polyHis; made in house; host or cells: E. coli
Protocol: (§1) The biochemical functional NMR screening on the proteins kinase AKT-1 and PKA was performed using the 3-FABS (3-Fluorine Atoms for Biochemical Screening) technique developed by C. Dalvit and the NMR group in house (C. Dalvit et al 2003 J. Am. Chem. Soc. 125 (47): 14620).
(§2) The method require the use of a ^19F-labelled substrate. The same commercial peptide was used as substrate in both enzymatic reaction: the Tyr just before the phosphorilation site in the AKTide peptide was mutated in a 3-tryfluormethyl-Phe by Bachem.
(§3) The AKTide like peptide sequence is reported below: • H-Ala-Arg-Lys-Arg-Glu-Arg-Ala-F(3-CF3)-Ser-Phe-Gly-His-His-Ala-OH
(§4) The active human Ser-Thr protein kinase AKT-1 Full Length was expressed as GST fusion protein in insect cells and then the GST was cleaved with PreScission protease. The active cycled AMP-dependent human protein kinase A PKA was expressed as polyHis-tag protein in E.Coli and purified by affinity column.
(§5) Reactions were performed in an end point format in eppendorf of 0.5 ml using the buffer solution 50mM Tris, pH 7.5, 5mM MgCl2, 1mM DTT, 8% D2O and 0.001% Triton-X-100; the final volume was of 560 µl. The substrate and protein concentration were of 30 µM and 25 nM respectively. The reactions were performed using an ATP concentration of about 9 times its KM: 150 µM in the test with PKA and 1.5 mM in the AKT-1 experiments. A sample in absence of inhibitor was run as control in order to follow the ongoing of the reaction and it represents the 0% inhibition. Different concentration compound stock solutions in DMSOd6 were made in order to add the same amount of DMSOd6 in each sample: usually the compounds stock were of 0.03, 0.2, 2, and 10 mM. 0.56 µl of these solution was added in each sample in order to reach the final compounds concentration of 30 nM, 200 nM 2 µM and 10 µM respectively; 0.56 µl of DMSOd6 was added in the control too. The reactions were quenched after about 100/120 minutes with 10 mM of Staurosporine (Sigma code:S4400), transferred into the 5 mm NMR tube (Cortec code: NE-MP5-8) and put onto the Sample Management System (SMS) autosampler for automatic data collection. The spectra were recorded using the Varian Inova 600 MHz NMR spectrometer operating at a ^19F Larmor frequency of 564 MHz and using a 5mm probe with the inner coil tuned to ^19F and the outer coil tuned to H. The data were recorded without proton decoupling with a spectral width of 12000 Hz, an acquisition time of 0.8s and a relaxation delay of 2.8s. Chemical shifts are referenced to trifluoroacetic acid.
(§6) IC50 determination was achieved by measuring the substrate signal as a function of the inhibitor concentration using one of the formulas below. […] IC50 data were analyzed with non-linear least squares methods in the Origin 5.0 software package.

AKT2 = target: T2, AKT2 (Homo sapiens, UniProt P31751); assay: Biochemical assay for inhibitors of AKT2 kinase activity (33P trans-phosphorylation, Dowex resin); details: 10 nM enzyme, 396 microM ATP, 8.5 microM peptide substrate; read-out: AKT2 IC50 (µM) Biochem assay
T2 construct: made in house
Protocol: (§7) The N-terminal GST fusion proteins used for the assays were prepared according to the methods described in Kumar, C. C. Biochem. Biophys. ACTA 2001, 1526, 257-268, and in Alessi, D. R.. Biochem. J. 1998 331, 299-308.
(§8) The in vitro kinase inhibition assay was conducted in the same way as described for AKT1. The kinase assay was run with a final enzyme concentration of 10 nM, in the presence of 396 microM ATP, 0.88 nM ^33P-γ-ATP and 8.5 microM substrate, a carboxy-terminally biotinylated peptide of the following sequence: ARKRERTYSFGHHA-biotin. The peptide was obtained in batches of >95% peptide purity from PRIMM labs Inc. (Boston MA, USA).

AKT3 = AKT3 (Homo sapiens, UniProt Q9Y243); assay: Biochemical assay for inhibitors of AKT3 kinase activity (33P trans-phosphorylation, Dowex resin); details: 1 nM enzyme, 180 microM ATP, 28.5 microM peptide substrate; read-out: AKT3 IC50 (µM) Biochem assay
Protocol: as §7
as §8, with “1” for “10”, “180” for “396”, “28.5” for “8.5”

AKT1 = AKT1 (Homo sapiens, UniProt P31749); assay: FABS-NMR screening (3-FABS, 19F-labelled AKTide-like substrate) on AKT-1; format: biochemical; parameters: The active human Ser-Thr protein kinase AKT-1 Full Length was expressed as GST fusion protein; GST (cleaved yes); made in house; host or cells: insect cells; details: 25 nM protein, 30 µM substrate, 1.5 mM ATP; read-out: AKT1 IC50 (µM) FABS NMR assay
Protocol: as §1, §2, §3, §4, §5, §6

AKT1, sequence (P31749 whole entry, the tested form may be a part): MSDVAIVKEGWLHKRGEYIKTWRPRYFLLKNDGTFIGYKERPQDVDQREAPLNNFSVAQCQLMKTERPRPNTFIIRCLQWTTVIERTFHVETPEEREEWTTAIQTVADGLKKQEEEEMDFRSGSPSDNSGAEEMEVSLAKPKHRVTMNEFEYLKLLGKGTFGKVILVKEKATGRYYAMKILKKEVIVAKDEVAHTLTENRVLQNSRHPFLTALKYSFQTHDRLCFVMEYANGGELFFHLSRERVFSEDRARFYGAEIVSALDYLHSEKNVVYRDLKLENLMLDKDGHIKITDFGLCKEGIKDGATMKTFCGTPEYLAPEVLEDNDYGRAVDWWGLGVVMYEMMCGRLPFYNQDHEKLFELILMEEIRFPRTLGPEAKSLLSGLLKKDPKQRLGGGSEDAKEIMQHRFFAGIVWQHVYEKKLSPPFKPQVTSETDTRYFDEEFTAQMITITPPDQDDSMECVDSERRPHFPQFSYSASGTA
AKT3, sequence (Q9Y243 2-479): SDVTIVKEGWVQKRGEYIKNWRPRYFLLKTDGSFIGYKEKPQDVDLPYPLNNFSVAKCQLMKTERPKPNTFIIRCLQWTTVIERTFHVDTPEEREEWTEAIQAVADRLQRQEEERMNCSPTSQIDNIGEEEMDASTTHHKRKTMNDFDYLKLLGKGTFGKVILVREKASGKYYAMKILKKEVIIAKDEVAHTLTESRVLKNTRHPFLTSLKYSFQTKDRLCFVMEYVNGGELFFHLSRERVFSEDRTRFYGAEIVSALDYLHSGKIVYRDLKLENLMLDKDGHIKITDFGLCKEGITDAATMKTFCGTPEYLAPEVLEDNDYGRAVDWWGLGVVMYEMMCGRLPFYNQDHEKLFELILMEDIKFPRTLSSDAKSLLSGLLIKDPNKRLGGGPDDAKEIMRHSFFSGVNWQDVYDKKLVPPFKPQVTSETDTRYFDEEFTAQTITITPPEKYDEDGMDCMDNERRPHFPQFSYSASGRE
T2 sequence (P31751 whole entry, species assumed): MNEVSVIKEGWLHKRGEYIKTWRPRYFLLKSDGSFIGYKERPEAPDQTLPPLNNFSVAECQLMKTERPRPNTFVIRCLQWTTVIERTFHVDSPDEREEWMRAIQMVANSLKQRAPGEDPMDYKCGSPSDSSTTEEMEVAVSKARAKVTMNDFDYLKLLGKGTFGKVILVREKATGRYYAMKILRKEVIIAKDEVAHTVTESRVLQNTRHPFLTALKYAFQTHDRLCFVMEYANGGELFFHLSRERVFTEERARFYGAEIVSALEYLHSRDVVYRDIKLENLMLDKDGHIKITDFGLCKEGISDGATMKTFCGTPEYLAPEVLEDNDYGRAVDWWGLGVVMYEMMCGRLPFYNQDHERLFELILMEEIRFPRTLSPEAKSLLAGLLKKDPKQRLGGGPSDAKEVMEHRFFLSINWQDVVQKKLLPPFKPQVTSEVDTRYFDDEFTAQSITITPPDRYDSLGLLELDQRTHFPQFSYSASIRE

| IC50 (PKAα) [µM] | IC50 (AKT2) [µM] | IC50 (AKT3) [µM] | IC50 (AKT1) [µM] | SMILES |
| --- | --- | --- | --- | --- |
| 0.062 | 0.362 | 0.043 | 0.315 | O=C(N[C@H](CN1CCCC1)c1ccccc1)C1=Cc2c[nH]c3nccc(c23)CC1 [Cpd. 6, N-[(1S)-1-phenyl-2-pyrrolidin-1-ylethyl]-6,7-dihydro-2H-2,3-diazabenzo[cd]azulene-8-carboxamide] |
| 0.02 | 0.266 | 0.032 | 0.15 | NC[C@H](Cc1ccccc1)NC(=O)C1=Cc2c[nH]c3nccc(c23)CC1 [Cpd. 1, N-[(1S)-2-amino-1-benzylethyl]-6,7-dihydro-2H-2,3-diazabenzo[cd]azulene-8-carboxamide] |
| 0.01 | 0.155 | 0.041 | 0.03 | NC[C@H](Cc1ccccc1)NC(=O)C1=Cc2c[nH]c3nccc(c23)NC1 [compound 2, N-[(1S)-2-amino-1-benzylethyl]-6,7-dihydro-2H-2,3,6-triazabenzo[cd]azulene-8-carboxamide] |
| 0.075 | 1.99 | 0.187 | 0.76 | CC(=O)N1CC(C(=O)N[C@H](CN)Cc2ccccc2)=Cc2c[nH]c3nccc1c23 [Cpd. 3, 6-acetyl-N-[(1S)-2-amino-1-benzylethyl]-6,7-dihydro-2H-2,3,6-triazabenzo[cd]azulene-8-carboxamide] |
